One test concerns Ube3am-/p+ (AS) mice. Briefly: Clasping test, mouse model of Angelman syndrome. The class given is in vivo. As to conditions: chronic treatment (30 days) CBDA 20 mg/kg i.p., 10 weeks of age, vs AS vehicle, FIG. 12. The procedure: Heterozygous mice with maternal deficiency of Ube3A (Ube3am−/p+) and wild type (Ube3am+/p+) were purchased from The Jackson Laboratory (Jackson code: B6.129S7-Ube3a tm1Alb/J) and maintained in a C57BL/6 background.
Drugs were dissolved in 1:1:18 ethanol:cremophor:0.9% saline, for intraperitoneal (i.p.) administration. […] CBDA was administered at 20 mg/kg.
Clasping: The clasping test assesses ataxia in mice. Mice were suspended by the base of the tail and their behaviours were recorded for 30 seconds. The time for which the mice clasped their hind limbs was recorded. The time was then scored as follows: 4, 15-30 s, 3, 10-15 s, 2, 5-10 s, 1, 0-5 s and 0, 0 s

For test [1], the system named is offspring of VPA-exposed rats. Briefly: Sociability and preference for social novelty, 3-chamber apparatus, rat VPA model. The class given is in vivo, Sprague-Dawley rats. The procedure:
Pregnant Sprague-Dawley rats (Charles River, Calco, Italy), received a single intraperitoneal injection of 500 mg/kg sodium valproate on the 12.5 day after conception, and control females were injected with physiological saline at the same time. Sodium valproate (Sigma Aldrich, Milan, IT) was dissolved in saline at a concentration of 250 mg/ml.
CBDA was dissolved in ethanol, cremophor and saline (1:1:18). Symptomatic treatment with CBDA at doses of 2 and 20 mg/kg/day i.p. was performed starting from PND 34 (early adolescence) till 56 (early adulthood), both in male and female offspring of dams injected with VPA 500 mg/kg (or vehicle) on day 12.5 after conception. At PND 56, a series of behavioural tests was performed in order to assess the effect of chronic CBDA on sociability, social novelty, short-term memory, locomotion and stereotyped/repetitive behaviours.
Sociability and preference for social novelty: These behaviours were investigated in a 3-chamber apparatus which allows for the measurement of social approach and social preference. In brief, animals were placed into a novel arena (80 cm×31.5 cm) composed of three communicating chambers separated by Perspex walls with central openings allowing access to all chambers for 5 min.
Following this acclimatisation period, animals were briefly confined to the central chamber while an unfamiliar rat confined in a small wire cage was placed in one of the outer chambers. An identical empty wire cage was placed in the other chamber. […] Time spent engaging in investigatory behaviour with the rat was evaluated with the aid of Anymaze program (Ugo Basile, Italy) in order to examine social approach.
To investigate the preference for social novelty, a novel unfamiliar rat was then placed in the empty cage and the test animal was then allowed to explore the arena/chambers for a further 5 min. Time spent engaging in investigatory behaviour with the novel unfamiliar rat was evaluated with the aid of Anymaze program (Ugo Basile, Italy) in order to examine preference for social novelty.

The subject of test [2] is MeCP2 KO mice. Briefly: Symptom scoring, mouse model of Rett syndrome. The class given is in vivo. The settings on record: chronic CBDA 2 and 20 mg/kg i.p., FIG. 7-9. The protocol:
(§1) CBDA was administered daily at the dose of 2 or 20 mg/kg i.p. starting from PND 28 and the following signs were scored every other day: hindlimb clasping (indication of motor imbalance), tremor, gait (measure of coordination), breathing, mobility and general condition.
(§2) The CBDA was dissolved in ethanol, cremophor and saline (1:1:18). Starting from PND 28, mice received a daily intraperitoneal injection of CBDA (or vehicle) at the dose of 2 or 20 mg/kg. Animals were then scored every other day to evaluate the effect of CBDA treatment on motor symptoms (hindlimb clasping, gait, mobility) as well as neurological signs and general conditions (breathing abnormalities, tremors and general condition) present in MeCP2 knockout (KO) mice.
Each of the six symptoms was scored from 0 to 2 (0 corresponds to the symptom being absent or the same as in the wild type (WT) animal; 1 when the symptom was present; 2 when the symptom was severe).
Mobility: the mouse is observed when placed on bench, then when handled gently. 0=as WT. 1=reduced movement when compared with WT: extended freezing period when first placed on bench and longer periods spent immobile. 2=no spontaneous movement when placed on the bench; mouse can move in response to a gentle prod or a food pellet placed nearby.
Gait: 0=as WT. […]

Test [3] relates to MeCP2 KO mice. Briefly: Body weight gain, mouse model of Rett syndrome. Format: in vivo. The settings on record: CBDA 2 and 20 mg/kg i.p. daily, PND 28-66, FIG. 5. The procedure: as §1, §2

The structures appear in SMILES notation.

Turning to `C=C(C)[C@@H]1CCC(C)=C[C@H]1c1c(O)cc(CCCCC)c(C(=O)O)c1O` [CBDA, Cannabidiolic acid], in the test on Ube3am-/p+ (AS) mice, the clasping duration entry is “significantly reduced clasping duration”. Besides, the preference index entry in test [1] (CBDA 20 mg/kg/day i.p. PND 34-56, VPA rats, FIG. 1C) was “significantly counteracted the impairment in sociability”. For the same compound, the social novelty preference entry in test [1] (CBDA 20 mg/kg/day i.p. PND 34-56, male VPA rats, FIG. 1A) was “statistically significant effect in males on restoration of social novelty preference”. The sociability entry in test [1] (CBDA at both doses (2 and 20 mg/kg/day i.p.) PND 34-56, VPA rats, FIG. 1B) was “significantly reduced the impairment in sociability”. For the same compound, in the test on MeCP2 KO mice [2], the “total symptom score (tremor, breathing, hindlimb clasping, gait, general condition, mobility)” value is “partially improve these symptoms and decrease the total symptom score, however these data were not significant”. Also, in the test with MeCP2 KO mice [3], the body weight gain result was “did not prevent the reduction in body weight”.

Values taken from patent US12150927B2, “Use of cannabidiolic acid in the treatment of autism spectrum disorder and associated disorders” (GW Research Limited, priority 2016, dated 2024).
